Reference: PubChem BioAssay (NCI)
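Interpolation was linear, between the two tested concentrations surrounding the appropriate level; five concentrations were tested over 48 hours in 96-well plates. GI50 = concentration required for 50% inhibition of growth. TGI marks complete inhibition of growth.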

Tests used:
Assay in all cases: inhibition of tumour cell growth, NCI panel, 48 h
786-0 renal = tested on: 786-0 renal
UACC-62 melanoma = tested on: UACC-62 melanoma
SW-620 colon = tested on: SW-620 colon
HOP-62 NSCLC = tested on: HOP-62 NSCLC
MDA-MB-435 = tested on: MDA-MB-435
MDA-MB-231 breast = tested on: MDA-MB-231 breast
COLO 205 colon = tested on: COLO 205 colon
U251 CNS = tested on: U251 CNS
T-47D breast = tested on: T-47D breast
ACHN renal = tested on: ACHN renal

Structure (SMILES): COc1ccc(CNc2nc(NCc3ccc(OC)cc3)nc(N3CCOCC3)n2)cc1
- TGI (786-0 renal): > 100 µM
- TGI (UACC-62 melanoma): > 100 µM
- TGI (SW-620 colon): > 100 µM
- TGI (HOP-62 NSCLC): > 100 µM
- TGI (MDA-MB-435): 4.66 µM
- TGI (MDA-MB-231 breast): > 100 µM
- TGI (COLO 205 colon): > 100 µM
- TGI (U251 CNS): > 100 µM
- TGI (T-47D breast): > 100 µM
- TGI (ACHN renal): > 100 µM

Structure (SMILES): CC1(C)[C@@H]2C[C@H]1c1cnc(-c3ccccn3)cc1C2[C@@H]1c2cc(-c3ccccn3)ncc2[C@@H]2C[C@H]1C2(C)C (some centres undefined)
- TGI (786-0 renal): > 100 µM
- TGI (UACC-62 melanoma): > 100 µM
- TGI (SW-620 colon): > 100 µM
- TGI (HOP-62 NSCLC): > 100 µM
- TGI (MDA-MB-435): > 100 µM
- TGI (MDA-MB-231 breast): > 100 µM
- TGI (COLO 205 colon): > 100 µM
- TGI (U251 CNS): > 100 µM
- TGI (T-47D breast): > 100 µM
- TGI (ACHN renal): > 100 µM

Structure (SMILES): N#CC1=CNc2sccc2S1(=O)=O
- TGI (786-0 renal): > 100 µM
- TGI (UACC-62 melanoma): > 100 µM
- TGI (SW-620 colon): > 100 µM
- TGI (HOP-62 NSCLC): > 100 µM
- TGI (MDA-MB-435): > 100 µM
- TGI (MDA-MB-231 breast): > 100 µM
- TGI (COLO 205 colon): > 100 µM
- TGI (U251 CNS): > 100 µM
- TGI (T-47D breast): > 100 µM
- TGI (ACHN renal): > 100 µM

Structure (SMILES): CC1=CC[C@@H]2CC[C@]3(C)[C@H](CC[C@@H]4[C@@]5(C)CCCNC(C)(C)[C@@H]5CC[C@]43C)[C@H]2[C@@H]1C
- GI50 (UACC-62 melanoma): 1.77 µM
- TGI (UACC-62 melanoma): 3.22 µM
- GI50 (MDA-MB-435): 1.85 µM
- TGI (MDA-MB-435): 3.28 µM
- GI50 (MDA-MB-231 breast): 1.8 µM
- TGI (MDA-MB-231 breast): 3.47 µM
- GI50 (ACHN renal): 1.76 µM
- TGI (ACHN renal): 3.14 µM

Structure (SMILES): CCOC(=O)c1cn(-c2ccc(Cl)cc2)c(=O)n2c1nc1ccccc12
- TGI (786-0 renal): > 100 µM
- TGI (UACC-62 melanoma): > 100 µM
- TGI (SW-620 colon): > 100 µM
- TGI (HOP-62 NSCLC): > 100 µM
- TGI (MDA-MB-435): > 100 µM
- TGI (MDA-MB-231 breast): > 100 µM
- TGI (COLO 205 colon): > 100 µM
- TGI (U251 CNS): > 100 µM
- TGI (T-47D breast): > 100 µM
- TGI (ACHN renal): > 100 µM

Structure (SMILES): COC(OC)C(O)C1OC=CC1n1cnc2c(N)ncnc21 (centres undefined)
- TGI (786-0 renal): > 100 µM
- TGI (UACC-62 melanoma): > 100 µM
- TGI (SW-620 colon): > 100 µM
- TGI (HOP-62 NSCLC): > 100 µM
- TGI (MDA-MB-435): > 100 µM
- TGI (MDA-MB-231 breast): > 100 µM
- TGI (COLO 205 colon): > 100 µM
- TGI (U251 CNS): > 100 µM
- TGI (T-47D breast): > 100 µM
- TGI (ACHN renal): > 100 µM

Structure (SMILES): CCOC(=O)c1sc2c(c1OC(=O)c1ccccc1)c(=O)n(-c1ccccc1)c(=S)n2-c1ccccc1
- TGI (786-0 renal): 29.4 µM
- TGI (UACC-62 melanoma): 52.3 µM
- TGI (SW-620 colon): > 100 µM
- TGI (HOP-62 NSCLC): 54.4 µM
- TGI (MDA-MB-435): 51.7 µM
- TGI (MDA-MB-231 breast): 87.2 µM
- TGI (COLO 205 colon): > 100 µM
- TGI (U251 CNS): 46.5 µM
- TGI (T-47D breast): > 100 µM
- TGI (ACHN renal): > 100 µM

Structure (SMILES): Nc1nc2c(ncn2C2C=CC(CO)O2)c(=O)[nH]1 (centres undefined)
- TGI (SW-620 colon): > 100 µM
- TGI (HOP-62 NSCLC): > 100 µM
- TGI (MDA-MB-435): > 100 µM
- TGI (MDA-MB-231 breast): > 100 µM
- TGI (COLO 205 colon): > 100 µM
- TGI (U251 CNS): > 100 µM
- TGI (T-47D breast): > 100 µM

Structure (SMILES): CCOC(=O)C(O)(NC(C)=O)C(F)(F)F (centres undefined)
- TGI (UACC-62 melanoma): > 100 µM
- TGI (SW-620 colon): > 100 µM
- TGI (HOP-62 NSCLC): > 100 µM
- TGI (MDA-MB-435): > 100 µM
- TGI (COLO 205 colon): > 100 µM
- TGI (U251 CNS): > 100 µM
- TGI (T-47D breast): > 100 µM
- TGI (ACHN renal): > 100 µM

Structure (SMILES): O=C(O)c1ccc(Nc2nc3cc(C(F)(F)F)ccc3nc2C(=O)O)cc1
- TGI (786-0 renal): > 100 µM
- TGI (SW-620 colon): > 100 µM
- TGI (HOP-62 NSCLC): > 100 µM
- TGI (MDA-MB-435): > 100 µM
- TGI (MDA-MB-231 breast): > 100 µM
- TGI (COLO 205 colon): > 100 µM
- TGI (U251 CNS): > 100 µM
- TGI (ACHN renal): > 100 µM

Structure (SMILES): O=[As](O)(O)c1cc(N=Nc2ccc(-c3ccc(N=Nc4cc([As](=O)(O)O)c(O)cc4O)cc3)cc2)c(O)cc1O
- TGI (786-0 renal): > 100 µM
- TGI (UACC-62 melanoma): > 100 µM
- TGI (SW-620 colon): > 100 µM
- TGI (HOP-62 NSCLC): > 100 µM
- TGI (COLO 205 colon): > 100 µM
- TGI (U251 CNS): > 100 µM
- TGI (ACHN renal): > 100 µM

Structure (SMILES): COc1cc(C2C3=C(COC3=O)OC(C)(C)Oc3cc4c(cc32)OCO4)cc(OC)c1OC (centres undefined)
- TGI (UACC-62 melanoma): > 20 µM
- TGI (SW-620 colon): > 100 µM
- TGI (HOP-62 NSCLC): > 100 µM
- TGI (MDA-MB-435): 0.5 µM
- TGI (MDA-MB-231 breast): > 100 µM
- TGI (COLO 205 colon): 0.552 µM
- TGI (U251 CNS): > 100 µM
- TGI (ACHN renal): > 100 µM

Structure (SMILES): N#CCCN(CCCN(C(=O)Nc1ccccc1)c1ccccc1)C(=O)Nc1ccccc1
- TGI (786-0 renal): > 100 µM
- TGI (UACC-62 melanoma): > 100 µM
- TGI (SW-620 colon): > 100 µM
- TGI (HOP-62 NSCLC): > 100 µM
- TGI (MDA-MB-435): > 100 µM
- TGI (MDA-MB-231 breast): > 100 µM
- TGI (COLO 205 colon): > 100 µM
- TGI (U251 CNS): > 100 µM
- TGI (T-47D breast): > 100 µM
- TGI (ACHN renal): > 100 µM

Structure (SMILES): Cc1ccc(O)c(C2=NNC(c3cccc(Br)c3)C2)c1 (centres undefined)
- TGI (786-0 renal): > 100 µM
- TGI (UACC-62 melanoma): > 100 µM
- TGI (SW-620 colon): > 100 µM
- TGI (HOP-62 NSCLC): > 100 µM
- TGI (MDA-MB-435): 46.8 µM
- TGI (COLO 205 colon): > 100 µM
- TGI (U251 CNS): > 100 µM
- TGI (T-47D breast): > 100 µM
- TGI (ACHN renal): > 100 µM

Structure (SMILES): CCOC(=O)C1=C(C)NC(=S)NC1c1cccc(O)c1 (centres undefined)
- TGI (786-0 renal): > 100 µM
- TGI (UACC-62 melanoma): > 96.6 µM
- TGI (SW-620 colon): > 100 µM
- TGI (HOP-62 NSCLC): > 100 µM
- TGI (MDA-MB-435): 38 µM
- TGI (MDA-MB-231 breast): > 90 µM
- TGI (COLO 205 colon): > 82.3 µM
- TGI (U251 CNS): > 96.5 µM
- TGI (T-47D breast): > 100 µM
- TGI (ACHN renal): > 100 µM

Structure (SMILES): CC[N+](CC)=c1ccc2nc3c(cc(N)c4ccccc43)oc-2c1
- GI50 (MDA-MB-231 breast): 0.363 µM
- TGI (MDA-MB-231 breast): 1.73 µM
- GI50 (ACHN renal): 0.412 µM
- TGI (ACHN renal): 1.72 µM

Structure (SMILES): CC[N+](C)(CC)CCN1C(=O)c2ccccc2S1(=O)=O
- TGI (786-0 renal): > 100 µM
- TGI (UACC-62 melanoma): > 100 µM
- TGI (SW-620 colon): > 100 µM
- TGI (HOP-62 NSCLC): > 100 µM
- TGI (MDA-MB-435): > 100 µM
- TGI (MDA-MB-231 breast): > 100 µM
- TGI (COLO 205 colon): > 100 µM
- TGI (U251 CNS): > 100 µM
- TGI (T-47D breast): > 100 µM
- TGI (ACHN renal): > 100 µM

Structure (SMILES): CC#CC(O)(C(=O)OC1CCCN(C)C1)C1=CC=CCC1 (centres undefined)
- TGI (786-0 renal): > 100 µM
- TGI (UACC-62 melanoma): > 100 µM
- TGI (SW-620 colon): > 100 µM
- TGI (HOP-62 NSCLC): > 100 µM
- TGI (MDA-MB-435): > 100 µM
- TGI (MDA-MB-231 breast): > 100 µM
- TGI (COLO 205 colon): > 100 µM
- TGI (U251 CNS): > 100 µM
- TGI (T-47D breast): > 100 µM
- TGI (ACHN renal): > 100 µM

Structure (SMILES): CN(C(=O)c1ccc(Cl)s1)C(=S)N(C)C(=O)c1ccc(Cl)s1
- TGI (786-0 renal): > 10 µM
- TGI (UACC-62 melanoma): > 10 µM
- TGI (SW-620 colon): > 10 µM
- TGI (HOP-62 NSCLC): > 10 µM
- TGI (MDA-MB-231 breast): > 10 µM
- TGI (COLO 205 colon): > 10 µM
- TGI (U251 CNS): > 10 µM
- TGI (T-47D breast): > 10 µM
- TGI (ACHN renal): > 10 µM

Structure (SMILES): CN1CC(c2ccccc2)N(CCCCN2CC(c3ccccc3)N(C)CC2c2ccccc2)CC1c1ccccc1 (centres undefined)
- TGI (786-0 renal): > 100 µM
- TGI (UACC-62 melanoma): > 100 µM
- TGI (SW-620 colon): > 100 µM
- TGI (HOP-62 NSCLC): > 100 µM
- TGI (MDA-MB-435): > 100 µM
- TGI (MDA-MB-231 breast): > 100 µM
- TGI (COLO 205 colon): > 100 µM
- TGI (ACHN renal): > 100 µM

Structure (SMILES): COc1cccc(-c2nc3sccn3c2-c2ccnc(NCCNC(=O)Nc3cccc(C(F)(F)F)c3)n2)c1
- GI50 (UACC-62 melanoma): 2.55 µM
- TGI (UACC-62 melanoma): 7.48 µM
- GI50 (SW-620 colon): 4.47 µM
- TGI (SW-620 colon): 91.5 µM
- GI50 (HOP-62 NSCLC): 6.71 µM
- TGI (HOP-62 NSCLC): 42.4 µM
- GI50 (MDA-MB-435): 2.95 µM
- TGI (MDA-MB-435): 12.3 µM
- GI50 (MDA-MB-231 breast): 3.47 µM
- TGI (MDA-MB-231 breast): 12 µM
- GI50 (COLO 205 colon): 5.37 µM
- TGI (COLO 205 colon): 19.2 µM
- GI50 (U251 CNS): 3.95 µM
- TGI (U251 CNS): 19.8 µM
- GI50 (T-47D breast): 3.77 µM
- TGI (T-47D breast): 13.8 µM
- GI50 (ACHN renal): 3.17 µM
- TGI (ACHN renal): 19.1 µM
